Values quoted from earlier work, collected in patent US5667811A, “Na-K-ATPase inhibiting natriuretic substances” (The Regents of the University of California, priority 1992, dated 1997).
No end group written: not given here.

Experiments:
active transport = details: literature
Na-K-ATPase = details: literature

| Substance | inhibition of active transport (active transport) | Na-K-ATPase inhibition (Na-K-ATPase) |
| --- | --- | --- |
| ANF: atrial natriuretic factor, synthesized or stored in cardiac atria (SLRRSSCFGGRMDRIGAQSGLGCNSFRY; ends and bridges not checked; cysteine pairing not given here; UniProt P01160 124-151, looked up) | does not inhibit active transport |  |
| lysophosphatidyl choline |  | potent Na-K-ATPase inhibitors |
